Laboratory results as given in patent US9073855B2, “BCL-2 selective apoptosis-inducing agents for the treatment of cancer and immune diseases” (AbbVie Inc., priority 2008, dated 2015).

How the values were obtained:
Canine platelets = experiment: Platelet cell viability assay (platelet-rich plasma, Cell Titer Glo); format: cell-based; details: Canis lupus familiaris, 5 h, isolated canine platelets ex vivo, five hours at 37° C.
Experimental: After the incubation, platelets were equilibrated to room temperature for 20 minutes and then an equal volume of Cell Titer Glo reagent (Promega Corporation) was added. Samples were mixed for two minutes and then allowed to equilibrate for an additional 10 minutes at room temperature. The luminescence generated from the samples was quantitated using an LJL Analyst plate reader.
The effect of compounds on platelet survival can be directly evaluated ex vivo by examining the viability of isolated canine platelets in the presence of various concentrations of compound.

GST-Bcl-XL = GST-Bcl-XL (Homo sapiens, UniProt Q07817); experiment: TR-FRET binding assay, GST-Bcl-XL with F-Bak peptide probe; details: TR-FRET Binding Affinity, GST-Bcl-XL, F-Bak peptide probe
Procedure, shortened: (§1)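 Ki was derived with Wang's equation for competitive binding of two ligands. The read-out was time-resolved fluorescence after a 3 h room-temperature incubation, using a Tb-labelled antibody donor and the F-Bak peptide acceptor (excitation 340/35 nm). Test compounds entered as DMSO serial dilutions starting at 50 μM, which was the 2× concentration.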

FL5.12/Bcl-2 cells = experiment: FL5.12/Bcl-2 cell viability assay under IL-3 withdrawal (CellTitre Glo); format: cell-based, murine; details: Mus musculus, IL-3 withdrawn 48 hrs, then 24 hrs with compound
Procedure, shortened: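 Murine IL-3-dependent FL5.12 cells stably overexpressing Bcl-2 were deprived of IL-3 (WEHI-3B conditioned medium) for 48 h, then exposed to various compound concentrations for 24 h at 37 °C. Viability read by CellTiter-Glo luminescence.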

GST-Bcl-2 = GST-Bcl-2 (Homo sapiens, UniProt P10415); experiment: TR-FRET binding assay, GST-Bcl-2 with F-Bak peptide probe; details: TR-FRET Binding Affinity, GST-Bcl-2, F-Bak peptide probe
Procedure, shortened: as §1

Chain of GST-Bcl-2 (P10415 whole entry): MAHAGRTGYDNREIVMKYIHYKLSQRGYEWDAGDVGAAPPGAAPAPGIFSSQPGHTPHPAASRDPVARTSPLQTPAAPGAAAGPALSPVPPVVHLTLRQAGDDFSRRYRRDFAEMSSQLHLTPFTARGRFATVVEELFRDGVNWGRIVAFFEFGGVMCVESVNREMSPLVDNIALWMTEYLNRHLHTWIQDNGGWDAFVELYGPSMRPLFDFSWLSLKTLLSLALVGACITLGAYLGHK
Chain of GST-Bcl-XL (Q07817 whole entry): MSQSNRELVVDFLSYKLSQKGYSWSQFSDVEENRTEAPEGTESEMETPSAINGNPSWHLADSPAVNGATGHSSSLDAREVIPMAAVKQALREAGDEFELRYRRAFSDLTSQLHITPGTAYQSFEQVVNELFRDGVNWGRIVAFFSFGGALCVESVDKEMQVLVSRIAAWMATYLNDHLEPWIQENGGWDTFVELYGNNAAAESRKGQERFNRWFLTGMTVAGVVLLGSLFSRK

Structure (SMILES)	EC50 (Canine platelets) [µM]	Ki (GST-Bcl-XL) [nM]	EC50 (FL5.12/Bcl-2 cells) [nM]	Ki (GST-Bcl-2) [nM]
CC1(C)CCC(CN2CCN(c3ccc(C(=O)NS(=O)(=O)c4ccc(NCCCN5CCOCC5)c([N+](=O)[O-])c4)c(Oc4ccccc4)c3)CC2)=C(c2ccc(Cl)cc2)C1 [Example 18, 4-(4-{[2-(4-chlorophenyl)-4,4-dimethylcyclohex-1-en-1-yl]methyl}piperazin-1-yl)-N-({4-[(3-morpholin-4-ylpropyl)amino]-3-nitrophenyl}sulfonyl)-2-phenoxybenzamide]	29.7	8.13	123	0.238
CN1CCC(Nc2ccc(S(=O)(=O)NC(=O)c3ccc(N4CCN(CC5=C(c6ccc(Cl)cc6)CC(C)(C)CC5)CC4)cc3Oc3ccc4[nH]ncc4c3)cc2[N+](=O)[O-])CC1 [Example 21, 4-(4-{[2-(4-chlorophenyl)-4,4-dimethylcyclohex-1-en-1-yl]methyl}piperazin-1-yl)-2-(1H-indazol-5-yloxy)-N-({4-[(1-methylpiperidin-4-yl)amino]-3-nitrophenyl}sulfonyl)benzamide]	> 50	190	1010	5.43
CC1(C)CCC(CN2CCN(c3ccc(C(=O)NS(=O)(=O)c4ccc(NCCCN5CCOCC5)c([N+](=O)[O-])c4)c(Oc4ccc5c(c4)CCCN5)c3)CC2)=C(c2ccc(Cl)cc2)C1 [Example 22, 4-(4-{[2-(4-chlorophenyl)-4,4-dimethylcyclohex-1-en-1-yl]methyl}piperazin-1-yl)-N-({4-[(3-morpholin-4-ylpropyl)amino]-3-nitrophenyl}sulfonyl)-2-(1,2,3,4-tetrahydroquinolin-6-yloxy)benzamide]	> 50	125	825	6.22
CN1CCC(Nc2ccc(S(=O)(=O)NC(=O)c3ccc(N4CCN(CC5=C(c6ccc(Cl)cc6)CC(C)(C)CC5)CC4)cc3Oc3ccc4c(c3)CCCN4)cc2[N+](=O)[O-])CC1 [Example 23, 4-(4-{[2-(4-chlorophenyl)-4,4-dimethylcyclohex-1-en-1-yl]methyl}piperazin-1-yl)-N-({4-[(1-methylpiperidin-4-yl)amino]-3-nitrophenyl}sulfonyl)-2-(1,2,3,4-tetrahydroquinolin-6-yloxy)benzamide]	> 50	168	1440	6.64
O=C(NS(=O)(=O)c1ccc(NCC2CCOCC2)c([N+](=O)[O-])c1)c1ccc(N2CCN(Cc3cc(CN4CCCC4)ccc3-c3ccc(Cl)cc3)CC2)cc1Oc1cccc2[nH]ccc12 [Example 24, 4-(4-{[4′-chloro-4-(pyrrolidin-1-ylmethyl)-1,1′-biphenyl-2-yl]methyl}piperazin-1-yl)-2-(1H-indol-4-yloxy)-N-({3-nitro-4-[(tetrahydro-2H-pyran-4-ylmethyl)amino]phenyl}sulfonyl)benzamide]	> 50	> 660	55	0.194
O=C(NS(=O)(=O)c1ccc(NCC2CCOCC2)c([N+](=O)[O-])c1)c1ccc(N2CCN(Cc3cc(CCN4CCCC4)ccc3-c3ccc(Cl)cc3)CC2)cc1Oc1cccc2[nH]ccc12 [Example 25, 4-(4-{[4′-chloro-4-(2-pyrrolidin-1-ylethyl)-1,1′-biphenyl-2-yl]methyl}piperazin-1-yl)-2-(1H-indol-4-yloxy)-N-({3-nitro-4-[(tetrahydro-2H-pyran-4-ylmethyl)amino]phenyl}sulfonyl)benzamide]	> 50	205	49	0.05
CC1(C)CCC(CN2CCN(c3ccc(C(=O)NS(=O)(=O)c4ccc(NC5CCN(C6CCCC6)CC5)c([N+](=O)[O-])c4)c(Oc4ccc5[nH]ccc5c4)c3)CC2)=C(c2ccc(Cl)cc2)C1 [Example 26, 4-(4-{[2-(4-chlorophenyl)-4,4-dimethylcyclohex-1-en-1-yl]methyl}piperazin-1-yl)-N-({4-[(1-cyclopentylpiperidin-4-yl)amino]-3-nitrophenyl}sulfonyl)-2-(1H-indol-5-yloxy)benzamide]	> 50	> 660	35	0.14
O=C(NS(=O)(=O)c1ccc(NCC2CCOCC2)c([N+](=O)[O-])c1)c1ccc(N2CCN(Cc3ccccc3-c3ccc(Cl)cc3)CC2)cc1Oc1ccc2[nH]ccc2c1 [Example 40, 4-{4-[(4′-chloro-1,1′-biphenyl-2-yl)methyl]piperazin-1-yl}-2-(1H-indol-5-yloxy)-N-({3-nitro-4-[(tetrahydro-2H-pyran-4-ylmethyl)amino]phenyl}sulfonyl)benzamide]	> 50	> 660	165	0.534
O=C(NS(=O)(=O)c1ccc(NCC2CCOCC2)c([N+](=O)[O-])c1)c1ccc(N2CCN(Cc3ccccc3-c3ccc(Cl)cc3)CC2)cc1Oc1cccc2[nH]ccc12 [Example 45, 4-{4-[(4′-chloro-1,1′-biphenyl-2-yl)methyl]piperazin-1-yl}-2-(1H-indol-4-yloxy)-N-({3-nitro-4-[(tetrahydro-2H-pyran-4-ylmethyl)amino]phenyl}sulfonyl)benzamide]	> 50	> 660	139	0.828
CN(C)CCCNc1ccc(S(=O)(=O)NC(=O)c2ccc(N3CCN(Cc4ccccc4-c4ccc(Cl)cc4)CC3)cc2Oc2cccc3[nH]ccc23)cc1[N+](=O)[O-] [Example 46, 4-{4-[(4′-chloro-1,1′-biphenyl-2-yl)methyl]piperazin-1-yl}-N-[(4-{[3-(dimethylamino)propyl]amino}-3-nitrophenyl)sulfonyl]-2-(1H-indol-4-yloxy)benzamide]	30	19	41	0.159
CC1(C)CCC(CN2CCN(c3ccc(C(=O)NS(=O)(=O)c4ccc(NCCCN5CCOCC5)c([N+](=O)[O-])c4)c(Oc4ccc5[nH]ccc5c4)c3)CC2)=C(c2ccc(Cl)cc2)C1 [Example 52, 4-(4-{[2-(4-chlorophenyl)-4,4-dimethylcyclohex-1-en-1-yl]methyl}piperazin-1-yl)-2-(1H-indol-5-yloxy)-N-({4-[(3-morpholin-4-ylpropyl)amino]-3-nitrophenyl}sulfonyl)benzamide]	> 50	79.8	16	0.239
CN(C)CCCNc1ccc(S(=O)(=O)NC(=O)c2ccc(N3CCN(CC4=C(c5ccc(Cl)cc5)CC(C)(C)CC4)CC3)cc2Oc2ccc3[nH]ccc3c2)cc1[N+](=O)[O-] [Example 53, 4-(4-{[2-(4-chlorophenyl)-4,4-dimethylcyclohex-1-en-1-yl]methyl}piperazin-1-yl)-N-[(4-{[3-(dimethylamino)propyl]amino}-3-nitrophenyl)sulfonyl]-2-(1H-indol-5-yloxy)benzamide]	18.3	4.85	11	0.081
CN1CCC(Nc2ccc(S(=O)(=O)NC(=O)c3ccc(N4CCN(CC5=C(c6ccc(Cl)cc6)CC(C)(C)CC5)CC4)cc3Oc3ccc4[nH]ccc4c3)cc2S(=O)(=O)C(F)(F)F)CC1 [Example 76, 4-(4-{[2-(4-chlorophenyl)-4,4-dimethylcyclohex-1-en-1-yl]methyl}piperazin-1-yl)-2-(1H-indol-5-yloxy)-N-({4-[(1-methylpiperidin-4-yl)amino]-3-[(trifluoromethyl)sulfonyl]phenyl}sulfonyl)benzamide]	8.66	3.29	39	–
CN1CCC(Nc2ccc(S(=O)(=O)NC(=O)c3ccc(N4CCN(CC5=C(c6ccc(Cl)cc6)CC(C)(C)CC5)CC4)cc3Oc3ccc4[nH]ccc4c3)cc2[N+](=O)[O-])CC1 [Example 98, 4-(4-{[2-(4-chlorophenyl)-4,4-dimethylcyclohex-1-en-1-yl]methyl}piperazin-1-yl)-2-(1H-indol-5-yloxy)-N-({4-[(1-methylpiperidin-4-yl)amino]-3-nitrophenyl}sulfonyl)benzamide]	17.9	> 660	4	–
CN(C)CCCOc1ccc(S(=O)(=O)NC(=O)c2ccc(N3CCN(CC4=C(c5ccc(Cl)cc5)CC(C)(C)CC4)CC3)cc2Oc2cccc3[nH]ccc23)cc1[N+](=O)[O-] [Example 106, 4-(4-{[2-(4-chlorophenyl)-4,4-dimethylcyclohex-1-en-1-yl]methyl}piperazin-1-yl)-N-({4-[3-(dimethylamino)propoxy]-3-nitrophenyl}sulfonyl)-2-(1H-indol-4-yloxy)benzamide]	15.2	–	9	–
CN(C)CCOc1cccc(-c2ccc(Cl)cc2)c1CN1CCN(c2ccc(C(=O)NS(=O)(=O)c3ccc(NCC4CCOCC4)c([N+](=O)[O-])c3)c(Oc3ccc4[nH]ccc4c3)c2)CC1 [Example 129, 4-[4-({4′-chloro-3-[2-(dimethylamino)ethoxy]-1,1′-biphenyl-2-yl}methyl)piperazin-1-yl]-2-(1H-indol-5-yloxy)-N-({3-nitro-4-[(tetrahydro-2H-pyran-4-ylmethyl)amino]phenyl}sulfonyl)benzamide]	> 50	–	21	–
